Laboratory results as given in patent publication US5792784A, “Coupling product obtained from histamine and an amino acid” (Babizhayev; Marc, priority 1993, dated 1998).

What was measured:
[1] = "Peroxidase" type activity on liposome model: reduction of phosphatidylcholine hydroperoxides (PC-OOH); assay type: biochemical
Protocol: The "peroxidase" type activity also has been evaluated on a "liposome" model. The phosphatidylcholine hydroperoxides (PC-OOH) are prepared according to a similar procedure to the one already described for the linoleic acid monoperoxide.
The peroxide species reduction is followed by dosing the remaining peroxides according to the method laid down by Hicks M and Gebicki J. M.--Anal. Biochem, vol 99, (1979), p. 249-253.

[2] = Inhibition of phosphatidylcholine liposome peroxidation (Fe/ascorbic acid; TBA/MDA); conditions: 10 mM; control 4.4
Source text: oxidation substrate: phosphatidylcholine liposomes
free radicals generating system : Fe/ascorbic acid detection: thiobarbituric acid (TBA)/malondialdehyde (MDA)

[3] = Tests with peroxidized compounds: reducing behaviour; assay type: biochemical
[4] = system: lens; experiment: Cataract patients: lens opacity (slit lamp, retroillumination, image analysis); assay type: in vivo; conditions: for decrease of the opacity: 24 months, groups 2 and 3; for integration peak of opacity distribution: posterior subcapsular cataract
Source text: (§1) The study has been designed for a prospective evaluation of the modifications of the lens opacity in patients effected by cataract. All the patients have undergone an initial ophtalmic examination. It involved the making of the medical historical record of the patient, a measurement of the visual acuity at a maximum correction, direct or indirect ophtalmoscopies, an evaluation of the opacities with the slit lamp, a clinical grading of the lens after maximal mydriasis, a classification according to the cataract type, and lens pictures by retroillumination. Moreover, samples of blood have been taken at the beginning, then in follow-up for chemical analysis.
Changes of the lens have been examined in all the patients by using the microscope with the Zeiss slit lamp. The photographic observations obtained with this technique included a base line examination, intermediate studies and a final examination at the end of the treatment period.
In using the technique of the slit lamp, the lens has been pictured layer by layer in order to visualize all the anterior segment of the eye, from the cornea to the posterior capsule.
With this technique, Red reflex examination has been carried out, according to a conventional retroillumination. Then lens modifications were graded according to the anatomical location and the importance of the modification.
Cortical opacities have been graded and pictured in retroillumination. Afterwards this film has been submitted to a measurement of linear densitometry with a microdensitometer. The opacity values have been reported in relative value using a standard scale of opacification. The cortical opacities measurement have been rated also taking into account of the total surface exposed to radiation. The posterior subcapsular opacities have been measured in retroillumination by the longest height, from the lower part to the top and by the greatest width, using the scale of the slit lamp.
Pictures of the lens also were taken on nuclear and cortical opacities and later on they were graded.
The different negatives taken with the slit lamp have been analyzed with a "plumbicon tube". This equipment allows one to transpose with a large accuracy a measurement of intensity of light into an electric signal which is integrated and stored in an analysis system of computerized image. With the help of a specific program, the lens image in that manner "digitized" could be reproduced as a graph in two or three dimensions.
A detailed description of this method of image processing is given in : Babizhayev M. A. Zhukotskii A. V. and Sologub A. A. (1992), "Image analysis of the lens opacities induced in developing chick embryo by glucocorticoid", Exp. Eye Res. Vol. 55, p.521-537.
The represented histograms show in a concrete example the interest of such evaluation method. A case of posterior subcapsular cataract is studied before and after 21/2 months of treatment following topical applications with eye drops containing 1% of β-alanyl-histamine. The histograms give the quantitative distribution of opacities with an integration peak of 58.44±18.14 before treatment, and of 44.95±8.77 after 21/2 months of treatment.
(§2) Following the protocol described above, we determine the values of the optic density of the lens according to its opacity as well as the visual acuity, and the whole for 24 months. Considering these two parameters, we obtain tables giving results concerning the modification of the visual acuity at the end of 24 months in Tables 1 and 2, and the results concerning the modification of the visual opacity at the end of 24 months in Tables 3 and 4.

[5] = "Peroxidase" activity: reduction of 13-monoperoxide of linoleic acid (L-OOH); assay type: biochemical; conditions: for "peroxidase" activity: 13-monoperoxide linoleic acid 0.5 mM, control 36.7
Protocol: Lipid peroxides evolution is monitored with the help of 3 methods:
1°) spectrophotometric measure at 233 nm
(O. S. Privett, C. Nickell, W. O. Lundberg, and P. D. Bayer, dans J.Am.Oil Chem. Soc, Vol 32 (1955), P.505-511
2°) Iodometric dosage: M.Hicks' and J. M. Gebicki's method, Analytical Biochemistry, vol 99 (1979), p 249-253.
3°) Chromatography on silica gel plate (hexane/ether/acetic acid 8/7/0.1).
(a) 13-monoperoxide linoleic acid 0.5 mM without reducing agent (preparation according to H. W. Gardner's method Lipids, Vol.10 (1975), p. 248-252).

[6] = system: cataract; experiment: Cataract patients: modification of the visual acuity at the end of 24 months; assay type: in vivo; conditions: 24 months
Source text: This example concerns the utilization of the β-alanyl-histamine to treat patients affected by cataract.
as §1
The general view has allowed to establish the initial state of patients before the treatment (definition of "base line").
Follow-up of ophtalmic examinations were carried out every two weeks for two months, then every month. They included maximum visual acuity after correction, direct or indirect ophtalmoscopies, a slit lamp examination, and after a maximum dilation of the pupil (excluding patients with primary open-angle glaucoma), a clinical lens grading, a classification of the cataract. Pictures also have been taken on lens observed by retroillumination or with the slit lamp.
In this study, differents groups have been determined, to be seen:
A group reference 1, with non-treated patients (5 patients, 7 eyes) […]
A group 3, has been submitted to the same treatment than the group 2, stimulated by an "attack type of treatment" during the first two weeks: 2 subcon-junctival junctival injections twice a week of 0.10 to 0.15 ml of the saline defined for the group 2 (3 patients, 4 eyes).
A group 4, which was given a local dose by way of an eye drop of isotonic saline twice a day (5 patients 7 eyes), the group 4 being like the group 1, a reference group.
as §2

[7] = Inhibition of linoleic acid peroxidation (Fe/ascorbic acid; TBA/MDA); assay type: biochemical; conditions: 25 mM (mixture: 25 mM each), linoleic acid 0.25 mg/ml
Protocol: oxidation substrate: linoleic acid (0.25 mg/ml), free radicals generating system: Fe/ascorbic acid detection: thiobarbituric acid (TBA)/malondialdehyde (MDA)

[8] = after 21/2 months, eye drops 1%
[9] = groups 2 and 3, start acuity 20/30
[10] = groups 2 and 3, start acuity 20/40
[11] = groups 2 and 3, start acuity 20/50
[12] = groups 2 and 3, start acuity 20/70
[13] = groups 2 and 3, start acuity 20/100
[14] = groups 2 and 3, total of 19 eyes

For `NCCC(=O)NCCc1c[nH]cn1` [β-alanyl-histamine], the “number of moles of PC-OOH reduced/initial number of moles of PC/hour” value ([1]; 10 mM) was 0.77 × 10^-3 moles of PC-OOH reduced/initia, the “number of moles of PC-OOH reduced/initial number of moles of PC/hour” value ([1]; 25 mM) was 1.56 × 10^-3 moles of PC-OOH reduced/initia and the “MDA per mg of phospholipids” value [2] was 2.5 mol MDA per mg of phospholipid. For the same compound, the “reducing behaviour towards peroxidized compounds” value [3] was “behaves in a way comparable to β-alanyl-histidine or carnosine”, the “decrease of the opacity” value ([4]; modification 5 @ 9%) was 3 and the “decrease of the opacity” value ([4]; modification 10 @ 14%) was 5. For the same compound, the “decrease of the opacity” value ([4]; modification 15 @ 19%) was 5, the “decrease of the opacity” value ([4]; modification 20 @ 24%) was 1 and the “decrease of the opacity” value ([4]; modification +25%) was 5. The “decrease of the opacity” value ([4]; total) was 19, the “opacities in the posterior subcapsular region of the lens” value [4, 8] was “partial regression of the opacities” and the “integration peak of opacity distribution” value [4, 8] was 44.95±8.77. For the same compound, the “integration peak of opacity distribution” value ([4]; before treatment) was 58.44±18.14, the “"peroxidase" activity” value ([5]; 10 mM) was 138.1 mol of L-OOH reduced/hour and the “"peroxidase" activity” value ([5]; 20 mM) was 187.5 mol of L-OOH reduced/hour. The “"peroxidase" activity with the adding of EDTA” value ([5]; EDTA 0.5 mM) was “completely inhibited”, the “improvement of the visual acuity + (number of eyes)” value ([6]; groups 2 and 3, start acuity 20/25) was 1 eyes and the “improvement of the visual acuity + (number of eyes)” value [6, 9] was 1 eyes. For the same compound, the “improvement of the visual acuity ++ (number of eyes)” value [6, 9] was 4 eyes, the “improvement of the visual acuity + (number of eyes)” value [6, 10] was 1 eyes and the “improvement of the visual acuity ++ (number of eyes)” value [6, 10] was 3 eyes. The “improvement of the visual acuity + (number of eyes)” value [6, 11] was 1 eyes, the “improvement of the visual acuity ++ (number of eyes)” value [6, 11] was 1 eyes and the “improvement of the visual acuity + (number of eyes)” value [6, 12] was 1 eyes. The “improvement of the visual acuity ++ (number of eyes)” value [6, 12] was 1 eyes, the “improvement of the visual acuity ++ (number of eyes)” value [6, 13] was 1 eyes and the “improvement of the visual acuity +++ (number of eyes)” value [6, 13] was 2 eyes. The “regression of the visual acuity ++ (number of eyes)” value [6, 13] was 1 eyes, the “improvement of the visual acuity ++ (number of eyes)” value ([6]; groups 2 and 3, start acuity 20/200) was 1 eyes and the “improvement of the visual acuity + (number of eyes)” value [6, 14] was 5 eyes. For the same compound, the “improvement of the visual acuity ++ (number of eyes)” value [6, 14] was 11 eyes, the “improvement of the visual acuity +++ (number of eyes)” value [6, 14] was 2 eyes and the “regression of the visual acuity + (number of eyes)” value [6, 14] was 0 eyes. The “regression of the visual acuity ++ (number of eyes)” value [6, 14] was 1 eyes, the “regression of the visual acuity +++ (number of eyes)” value [6, 14] was 0 eyes and the “improvement of the vision and regression of cataract” value ([6]; two parameters: visual acuity and opacity) was “very significant in the improvement of the vision and the regression of cataract”. The “% inhibition” value [7] was 47% and the “MDA per mg of linoleic acid” value ([7]; control 7.95) was 4.25 mol MDA per mg of linoleic aci.
